Results as given in ChEMBL document CHEMBL1201862, “PubChem BioAssay data set” (2004).
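Grown in 96-well plates, cells were treated for 48 hours with each compound at five concentrations. Insufficient inhibition: endpoint recorded as highest concentration tested. GI50 = concentration required for 50% inhibition of growth.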 Calls of active or inactive are those of the source. Cut-off read from the data, not from the text of the source: active = GI50 up to about 1.1 µM and inactive = higher.

Key:
Assay in all cases: NCI anticancer screen, dose series, 48 h
HL-60 = tested on: HL-60
HT-29 = tested on: HT-29
KM12 = tested on: KM12
Malme-3M = tested on: Malme-3M
NCI-H522 = tested on: NCI-H522
OVCAR-4 = tested on: OVCAR-4
OVCAR-5 = tested on: OVCAR-5
SF-268 = tested on: SF-268
SF-539 = tested on: SF-539
SK-MEL-5 = tested on: SK-MEL-5
SR = tested on: SR
U-251 = tested on: U-251
UACC-257 = tested on: UACC-257
UACC-62 = tested on: UACC-62
UO-31 = tested on: UO-31
SK-MEL-2 = tested on: SK-MEL-2

SMILES	GI50 (HL-60)	GI50 (HT-29)	GI50 (KM12)	GI50 (Malme-3M)	GI50 (NCI-H522)	GI50 (OVCAR-4)	GI50 (OVCAR-5)	GI50 (SF-268)	GI50 (SF-539)	GI50 (SK-MEL-5)	GI50 (SR)	GI50 (U-251)	GI50 (UACC-257)	GI50 (UACC-62)	GI50 (UO-31)	GI50 (SK-MEL-2)
CCC(/C(=N/NC(=O)C[N+](C)(C)C)c1ccccc1)C1OC(=O)c2ccccc21 (stereo not given)	> 100 µM (inactive)	> 100 µM (inactive)	> 100 µM (inactive)	> 100 µM (inactive)	> 100 µM (inactive)	> 100 µM (inactive)	> 100 µM (inactive)	> 100 µM (inactive)	> 100 µM (inactive)	> 100 µM (inactive)	> 100 µM (inactive)	> 100 µM (inactive)	> 100 µM (inactive)	> 100 µM (inactive)	> 100 µM (inactive)	–
FC(F)(F)c1nc(-c2ccccc2Cl)[nH]c1C(F)(F)F	0.406 µM (active)	0.94 µM (active)	0.975 µM (active)	0.861 µM (active)	–	0.664 µM (active)	0.746 µM (active)	1.23 µM (inactive)	0.893 µM (active)	0.348 µM (active)	0.456 µM (active)	0.318 µM (active)	0.646 µM (active)	0.766 µM (active)	0.675 µM (active)	0.501 µM (active)
Cc1c(C(=O)/C=C/c2ccc(Cl)cc2)[n+]([O-])c2ccccc2[n+]1[O-]	5.92 µM (inactive)	12.9 µM (inactive)	10.8 µM (inactive)	19.6 µM (inactive)	3.78 µM (inactive)	10.5 µM (inactive)	15 µM (inactive)	14.7 µM (inactive)	12.1 µM (inactive)	–	19.3 µM (inactive)	12.9 µM (inactive)	15.8 µM (inactive)	12.6 µM (inactive)	16.1 µM (inactive)	–
O=c1[nH]cc(COCCCO)c(=O)[nH]1	> 100 µM (inactive)	> 100 µM (inactive)	> 100 µM (inactive)	> 100 µM (inactive)	> 100 µM (inactive)	> 100 µM (inactive)	> 100 µM (inactive)	> 100 µM (inactive)	> 100 µM (inactive)	> 100 µM (inactive)	> 100 µM (inactive)	> 100 µM (inactive)	> 100 µM (inactive)	> 100 µM (inactive)	> 100 µM (inactive)	> 100 µM (inactive)
O=C(Nc1nnc(S)[nH]1)C(=O)C(c1cnc2ccc([N+](=O)[O-])cc2n1)[N+](=O)[O-] (stereo not given)	> 100 µM (inactive)	> 100 µM (inactive)	> 100 µM (inactive)	> 100 µM (inactive)	16.2 µM (inactive)	> 100 µM (inactive)	> 100 µM (inactive)	> 100 µM (inactive)	> 100 µM (inactive)	> 100 µM (inactive)	> 100 µM (inactive)	> 100 µM (inactive)	> 100 µM (inactive)	> 100 µM (inactive)	> 100 µM (inactive)	–
COC(=O)c1nc(N)nc(O)c1-c1ccc(Cl)cc1	> 100 µM (inactive)	> 100 µM (inactive)	> 100 µM (inactive)	> 100 µM (inactive)	> 100 µM (inactive)	> 100 µM (inactive)	> 100 µM (inactive)	> 100 µM (inactive)	> 100 µM (inactive)	> 100 µM (inactive)	> 70 µM (inactive)	> 100 µM (inactive)	> 100 µM (inactive)	> 100 µM (inactive)	> 100 µM (inactive)	> 100 µM (inactive)
COc1ccc(OCC(=O)O)c2c1CCC(C(C)C)C2=O (stereo not given)	> 100 µM (inactive)	> 100 µM (inactive)	> 100 µM (inactive)	> 100 µM (inactive)	> 100 µM (inactive)	> 100 µM (inactive)	> 100 µM (inactive)	–	> 100 µM (inactive)	> 100 µM (inactive)	–	> 100 µM (inactive)	> 100 µM (inactive)	> 100 µM (inactive)	> 100 µM (inactive)	> 100 µM (inactive)
N#C/C(c1nc2ccccc2[nH]1)=c1\s/c(=C/c2ccc(Cl)cc2)c(=O)n1-c1ccccc1	> 100 µM (inactive)	–	> 100 µM (inactive)	> 100 µM (inactive)	> 100 µM (inactive)	> 100 µM (inactive)	> 100 µM (inactive)	> 100 µM (inactive)	> 100 µM (inactive)	> 100 µM (inactive)	> 100 µM (inactive)	> 100 µM (inactive)	> 100 µM (inactive)	> 100 µM (inactive)	> 100 µM (inactive)	> 100 µM (inactive)
CC1(C)Cc2nnsc2C2=C1C(=O)CCS2	> 100 µM (inactive)	> 100 µM (inactive)	> 100 µM (inactive)	> 100 µM (inactive)	> 100 µM (inactive)	> 100 µM (inactive)	> 100 µM (inactive)	> 100 µM (inactive)	> 100 µM (inactive)	> 100 µM (inactive)	–	60.4 µM (inactive)	> 100 µM (inactive)	> 100 µM (inactive)	> 100 µM (inactive)	> 100 µM (inactive)
